# Data: patent US9738676B2, “Selected macrolides with PDE4-inhibiting activity” (Basilea Pharmaceutica AG, priority 2012, dated 2017)
# Experiments:
# S. pyogenes ATCC19615 = experiment: MIC determination by broth microdilution; type: cell-based; conditions: Streptococcus pyogenes, read-out: MIC (μg/ml) S. pyogenes ATCC19615
# Method: (§1) All MIC values are determined by broth microdilution according to the guidelines by the Clinical and Laboratory Standards Institute (CLSI, Wayne Pa., USA). Staphylococcus aureus ATCC29213 is grown on Müller-Hinton agar (MHA) (Becton Dickinson) and then in cation-adjusted Müller Hinton broth (CaMHB) (Becton Dickinson) for 24 h at 37° C. Streptococcus pyogenes ATCC19615 and Moraxella catharrhalis QK34 are grown on MHA with 2.5% Laked Horse Blood (Oxoid). Liquid cultures in CaMHB+5% horse serum (Sigma) are incubated for 24 h at 35° C. in a 5% CO2 atmosphere. Haemophilus. influenzae 3168 is grown on MHA+2.5% Fildes extract (Oxoid). Liquid cultures are grown in CaMHB+5% Fildes extract at 35° C. in a 5% CO2 atmosphere. Propionibacteria are grown on Wilkins-Chalgren agar (WCA) (Oxoid) for 72 h under anaerobic conditions. Liquid cultures are grown anaerobically in Wilkins-Chalgren broth (WCB) (Oxoid) for 48 h at 35° C. MIC values are obtained by broth microdilution using WCB (Anaerobe Broth MIC, Difco). Microtitre plates are loaded into 7-L GENbox anaerobic incubation jars (BioMerieux) fitted with anaerobic atmosphere generators (BioMerieux) and a Dry Anaerobic Indicator Strip (BBL). Under these conditions, an O2 concentration <0.1% is achieved by 2.5 h, and a CO2 concentration >15% by 24 h.
# S. aureus ATCC29213 = experiment: MIC determination by broth microdilution; type: cell-based; conditions: Staphylococcus aureus, read-out: MIC (μg/ml) S. aureus ATCC29213
# Method: as §1
# H. influenzae 3168 = experiment: MIC determination by broth microdilution; type: cell-based; conditions: Haemophilus influenzae, read-out: MIC (μg/ml) H. influenzae 3168
# Method: as §1
# M. catarrhalis QK34 = experiment: MIC determination by broth microdilution; type: cell-based, Moraxella catharrhalis; conditions: Moraxella catarrhalis, read-out: MIC (μg/ml) M. catarrhalis QK34
# Method: as §1
# PDE4 (U937) = experiment: PDE4 enzyme inhibition, IMAP fluorescence polarization assay; type: biochemical, human; conditions: for IC50: PDE4 partially purified from U937 cells
# Method: PDE4 is partially purified from undifferentiated human monocytic cells (U937) according to Thorpy et al. 1992 (J. Pharmacol. Exp. Ther. 263: 1195). Cells are grown in Iscove's modified Dulbecco's medium (GIBCO) with 5% foetal bovine serum (GIBCO) and 100 μg/mL penicillin-streptomycin (GIBCO). Cells are broken by sonication and PDE4 is purified by anion-exchange chromatography on DEAE-Sepharose CL-6B (GE Healthcare). […] In addition, PDE4 preparations are validated by inhibition studies with PDE4-specific and unspecific PDE inhibitors.
# PDEs specifically hydrolyze cAMP and/or cGMP and release the product AMP and/or GMP. The potency of PDE inhibition by test compounds is determined with a commercially available in vitro enzymatic assay (IMAP® Fluorescence Polarization assay, Molecular Devices Corp.). Fluorescently labeled cAMP or cGMP is hydrolyzed by PDE preparations and in a second step, binding of labeled product to a large binding partner allows product detection by fluorescence polarization (FP) measurements.
# Stock solutions of the test compounds are made in DMSO and diluted in assay buffer (10 mM Tris-HCl, 10 mM MgCl2, 0.1% BSA 0.05% NaN3, pH 7.2) to the desired concentrations. The solutions used in the assay contain the test compound in assay buffer with 2% DMSO. 5 μl of this pre-diluted test compound solution are mixed with 10 μl of substrate (FL-cAMP or FL-cGMP) at concentrations recommended by the manufacturer and with 5 μl of appropriately diluted PDE. 5 μl of reaction buffer with 2% DMSO are used for control reactions. […] After incubation for 90 minutes at room temperature, 60 μl of binding reagent are added as specified by the manufacturer. Binding is allowed to proceed for 30 minutes and fluorescence polarization is measured. Dose dependence of PDE inhibition is measured by assaying dilution series of test compounds. IC50 values are determined from the measured activities by curve fitting.
# P. acnes EG7NS = experiment: MIC determination by broth microdilution (anaerobic); type: cell-based, Propionibacterium acnes; conditions: for MIC: Cutibacterium acnes, EG7NS, read-out: MIC (μg/ml) P. acnes EG7NS
# Method: as §1
# P. granulosum EG13NS = experiment: as above; type: cell-based; conditions: read-out: MIC (μg/ml) P. granulosum EG13NS
# Method: as §1
# [1] = Oral bioavailability, pharmacokinetic study in mice; type: in vivo, mouse; conditions: for bioavailability: in vivo, mouse, 10 mg/kg oral, 1 mg/kg intravenous, dose-normalized AUC, read-out: Oral bioavail. (mouse F %)
# Method: Drug concentrations in blood or plasma are determined as a function of time in pharmacokinetic studies. Mice were treated with the test compound at defined doses. 10 mg/kg is used for oral administration and 1 mg/kg is taken for intravenous administration. Blood or plasma samples are collected at defined time-points and the drug content is determined by LC-MS/MS. The drug concentration is plotted as a function of time and the non-intravenous (oral) and the intravenous area under the curve (AUC) is calculated using the linear trapezoidal rule. The oral bioavailability is then calculated using dose-normalized AUC with the following formula: F[%]=AUCoral/AUCintravenous*100 Blocking of hERG Channel
# hERG channel = hERG channel (Homo sapiens (Human), UniProt Q12809); experiment: Blocking of hERG channel, whole-cell patch clamp in stably transfected HEK 293 cells; type: cell-based; conditions: for Blocking of hERG @ 1 μM (% remaining tail current) / Blocking of hERG @ 10 μM (% remaining tail current): HEK 293 cells
# bacteria = experiment: Antibacterial activity; type: cell-based
# Method: as §1
# Sequence of hERG channel (Q12809 whole entry): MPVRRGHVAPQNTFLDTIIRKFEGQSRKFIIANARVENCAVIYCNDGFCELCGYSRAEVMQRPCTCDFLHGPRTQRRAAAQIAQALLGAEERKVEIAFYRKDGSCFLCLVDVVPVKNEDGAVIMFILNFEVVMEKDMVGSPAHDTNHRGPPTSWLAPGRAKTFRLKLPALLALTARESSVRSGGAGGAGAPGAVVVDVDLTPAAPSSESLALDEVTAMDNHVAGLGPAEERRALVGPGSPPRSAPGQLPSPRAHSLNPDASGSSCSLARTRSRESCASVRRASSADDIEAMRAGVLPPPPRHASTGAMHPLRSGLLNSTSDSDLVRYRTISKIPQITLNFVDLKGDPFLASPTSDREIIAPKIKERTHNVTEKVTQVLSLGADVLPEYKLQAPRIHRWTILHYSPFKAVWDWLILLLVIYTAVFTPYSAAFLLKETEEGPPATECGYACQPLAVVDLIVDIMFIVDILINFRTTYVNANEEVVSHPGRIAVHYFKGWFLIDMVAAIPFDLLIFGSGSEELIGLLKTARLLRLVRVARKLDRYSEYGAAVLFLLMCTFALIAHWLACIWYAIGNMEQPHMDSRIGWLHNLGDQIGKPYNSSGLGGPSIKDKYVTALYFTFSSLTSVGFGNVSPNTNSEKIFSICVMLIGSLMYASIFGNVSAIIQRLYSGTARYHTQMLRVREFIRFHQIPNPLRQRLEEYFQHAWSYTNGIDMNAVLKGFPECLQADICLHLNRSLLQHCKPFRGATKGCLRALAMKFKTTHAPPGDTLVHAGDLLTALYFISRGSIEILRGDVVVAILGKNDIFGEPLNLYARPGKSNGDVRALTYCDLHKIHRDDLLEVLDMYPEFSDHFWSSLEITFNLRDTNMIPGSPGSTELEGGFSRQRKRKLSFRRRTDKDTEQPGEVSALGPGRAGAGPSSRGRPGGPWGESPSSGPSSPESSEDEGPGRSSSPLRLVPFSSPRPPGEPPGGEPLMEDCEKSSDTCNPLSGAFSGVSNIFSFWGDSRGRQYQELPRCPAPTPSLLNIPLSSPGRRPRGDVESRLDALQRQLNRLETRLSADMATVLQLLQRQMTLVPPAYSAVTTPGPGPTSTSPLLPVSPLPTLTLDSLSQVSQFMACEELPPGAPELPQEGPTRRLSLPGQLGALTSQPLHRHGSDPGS
smiles,measurement,setting,value
CC[C@H]1OC(=O)[C@H](C)[C@@H](O)[C@H](C)[C@@H](O[C@@H]2O[C@H](C)C[C@H](N(C)C(=O)N3CCOCC3)[C@H]2O)[C@](C)(OC)C[C@@H](C)C(=O)[C@H](C)[C@H]2[C@H](SCCOc3cc(C(=O)Nc4c(Cl)cncc4Cl)ccc3OC)C(=O)O[C@@]21C,MIC,S. pyogenes ATCC19615,> 32 µg/mL
same,MIC,S. aureus ATCC29213,> 32 µg/mL
same,MIC,H. influenzae 3168,> 32 µg/mL
same,MIC,M. catarrhalis QK34,> 32 µg/mL
same,IC50,PDE4 (U937),0.0001 µM
same,MIC,P. acnes EG7NS,> 32 µg/mL
same,MIC,P. granulosum EG13NS,> 32 µg/mL
same,bioavailability,[1],11.5%
same,Blocking of hERG @ 1 μM (% remaining tail current),hERG channel,99.9%
same,Blocking of hERG @ 10 μM (% remaining tail current),hERG channel,100%
CC[C@H]1OC(=O)[C@H](C)[C@@H](O[C@H]2C[C@@](C)(OC)[C@@H](O)[C@H](C)O2)[C@H](C)[C@@H](O[C@@H]2O[C@H](C)C[C@H](N(C)C(=O)N3CCOCC3)[C@H]2O)[C@](C)(OC)C[C@@H](C)C(=O)[C@H](C)[C@H]2[C@H](SCCN(Cc3c(Cl)cncc3Cl)c3ccc(OC)c(OC4CCCC4)c3)C(=O)O[C@@]21C,MIC,S. pyogenes ATCC19615,> 32 µg/mL
same,MIC,S. aureus ATCC29213,> 32 µg/mL
same,MIC,H. influenzae 3168,> 32 µg/mL
same,MIC,M. catarrhalis QK34,> 32 µg/mL
same,IC50,PDE4 (U937),0.043 µM
same,MIC,P. acnes EG7NS,> 32 µg/mL
same,MIC,P. granulosum EG13NS,> 32 µg/mL
same,bioavailability,[1],1.5%
same,Blocking of hERG @ 1 μM (% remaining tail current),hERG channel,99.2%
same,Blocking of hERG @ 10 μM (% remaining tail current),hERG channel,82.9%
CC[C@H]1OC(=O)[C@H](C)[C@@H](O)[C@H](C)[C@@H](O[C@@H]2O[C@H](C)C[C@H](N(C)C(=O)N3CCOCC3)[C@H]2O)[C@](C)(OC)C[C@@H](C)C(=O)[C@H](C)[C@H]2C(SCCN(Cc3c(Cl)cncc3Cl)c3ccc(OC)c(OC4CCCC4)c3)C(=O)O[C@@]21C (stereo in doubt) [compound of formula (I)],MIC,S. pyogenes ATCC19615,> 32 µg/mL
same,MIC,S. aureus ATCC29213,> 32 µg/mL
same,MIC,H. influenzae 3168,> 32 µg/mL
same,MIC,M. catarrhalis QK34,> 32 µg/mL
same,antibacterial activity (in words),bacteria,strongly reduced
same,PDE4-inhibiting activity (in words),PDE4 (U937),excellent
same,IC50,PDE4 (U937),0.035 µM
same,MIC,P. acnes EG7NS,> 32 µg/mL
same,MIC,P. granulosum EG13NS,> 32 µg/mL
same,oral bioavailability (in words),[1],particularly good
same,bioavailability,[1],22.8%
same,hERG channel inhibiting activity (in words),hERG channel,does not inhibit
same,Blocking of hERG @ 1 μM (% remaining tail current),hERG channel,99.9%
same,Blocking of hERG @ 10 μM (% remaining tail current),hERG channel,98%
CC[C@H]1OC(=O)[C@H](C)[C@@H](O[C@H]2C[C@@](C)(OC)[C@@H](O)[C@H](C)O2)[C@H](C)[C@@H](O[C@@H]2O[C@H](C)C[C@H](N(C)C(=O)N3CCOCC3)[C@H]2O)[C@](C)(OC)C[C@@H](C)C(=O)[C@H](C)[C@H]2N(CCCOc3cc(C(=O)Nc4c(Cl)cncc4Cl)ccc3OC)C(=O)O[C@]12C [Example 2 of WO2001/018510],MIC,S. pyogenes ATCC19615,> 32 µg/mL
same,MIC,S. aureus ATCC29213,> 32 µg/mL
same,MIC,H. influenzae 3168,> 32 µg/mL
same,MIC,M. catarrhalis QK34,> 32 µg/mL
same,antibacterial activity (in words),bacteria,low against many bacterial strains
same,IC50,PDE4 (U937),0.876 µM
same,activity against certain strains of Propionibacterium acnes (in words),P. acnes EG7NS,still very active
same,MIC,P. acnes EG7NS,2 µg/mL
same,MIC,P. granulosum EG13NS,> 32 µg/mL
same,oral bioavailability (in words),[1],moderate to good
same,bioavailability,[1],16.2%
same,hERG channel inhibiting activity (in words),hERG channel,acceptable
same,Blocking of hERG @ 1 μM (% remaining tail current),hERG channel,99%
same,Blocking of hERG @ 10 μM (% remaining tail current),hERG channel,84%
CC[C@H]1OC(=O)[C@H](C)[C@@H](O)[C@H](C)[C@@H](O[C@@H]2O[C@H](C)C[C@H](N(C)C)[C@H]2OC)[C@](C)(OC)C[C@@H](C)C(=O)[C@H](C)[C@H]2[C@H](SCCN(Cc3c(Cl)cncc3Cl)c3ccc(OC)c(OC4CCCC4)c3)C(=O)O[C@@]21C [Example 9 of WO2009/106419],MIC,S. pyogenes ATCC19615,32 µg/mL
same,MIC,S. aureus ATCC29213,8 µg/mL
same,MIC,H. influenzae 3168,> 32 µg/mL
same,MIC,M. catarrhalis QK34,> 32 µg/mL
same,antibacterial activity (in words),bacteria,antibacterially inactive against many pathogenic types of bacteria
same,PDE4-inhibiting activity (in words),PDE4 (U937),good to moderate
same,IC50,PDE4 (U937),0.3 µM
same,MIC,P. acnes EG7NS,4 µg/mL
same,MIC,P. granulosum EG13NS,4 µg/mL
same,oral bioavailability (in words),[1],moderate
same,bioavailability,[1],9%
same,hERG channel inhibiting activity (in words),hERG channel,rather strong
same,Blocking of hERG @ 1 μM (% remaining tail current),hERG channel,23.7%
same,Blocking of hERG @ 10 μM (% remaining tail current),hERG channel,3.7%
CC[C@H]1OC(=O)[C@H](C)[C@@H](O[C@H]2C[C@@](C)(OC)[C@@H](O)[C@H](C)O2)[C@H](C)[C@@H](O[C@@H]2O[C@H](C)C[C@H](N(C)C(C)=O)[C@H]2O)[C@](C)(OC)C[C@@H](C)C(=O)[C@H](C)[C@H]2[C@H](SCCN(Cc3c(Cl)cncc3Cl)c3ccc(OC)c(OC4CCCC4)c3)C(=O)O[C@@]21C [Example 10 of WO2009/106419],MIC,S. pyogenes ATCC19615,8 µg/mL
same,MIC,S. aureus ATCC29213,> 32 µg/mL
same,MIC,H. influenzae 3168,32 µg/mL
same,MIC,M. catarrhalis QK34,8 µg/mL
same,antibacterial activity (in words),bacteria,strong remaining antibacterial activity against certain types of bacteria
same,PDE4-inhibiting activity (in words),PDE4 (U937),excellent
same,IC50,PDE4 (U937),0.031 µM
same,MIC,P. acnes EG7NS,4 µg/mL
same,MIC,P. granulosum EG13NS,2 µg/mL
same,oral bioavailability (in words),[1],particularly good
same,bioavailability,[1],25.5%
same,Blocking of hERG @ 1 μM (% remaining tail current),hERG channel,95.9%
same,Blocking of hERG @ 10 μM (% remaining tail current),hERG channel,85.5%
